What all share (type): functional
One assay deals with T1, Protein RecA (Mycobacterium tuberculosis, UniProt P9WHJ3).
T1 sequence (P9WHJ3 whole entry): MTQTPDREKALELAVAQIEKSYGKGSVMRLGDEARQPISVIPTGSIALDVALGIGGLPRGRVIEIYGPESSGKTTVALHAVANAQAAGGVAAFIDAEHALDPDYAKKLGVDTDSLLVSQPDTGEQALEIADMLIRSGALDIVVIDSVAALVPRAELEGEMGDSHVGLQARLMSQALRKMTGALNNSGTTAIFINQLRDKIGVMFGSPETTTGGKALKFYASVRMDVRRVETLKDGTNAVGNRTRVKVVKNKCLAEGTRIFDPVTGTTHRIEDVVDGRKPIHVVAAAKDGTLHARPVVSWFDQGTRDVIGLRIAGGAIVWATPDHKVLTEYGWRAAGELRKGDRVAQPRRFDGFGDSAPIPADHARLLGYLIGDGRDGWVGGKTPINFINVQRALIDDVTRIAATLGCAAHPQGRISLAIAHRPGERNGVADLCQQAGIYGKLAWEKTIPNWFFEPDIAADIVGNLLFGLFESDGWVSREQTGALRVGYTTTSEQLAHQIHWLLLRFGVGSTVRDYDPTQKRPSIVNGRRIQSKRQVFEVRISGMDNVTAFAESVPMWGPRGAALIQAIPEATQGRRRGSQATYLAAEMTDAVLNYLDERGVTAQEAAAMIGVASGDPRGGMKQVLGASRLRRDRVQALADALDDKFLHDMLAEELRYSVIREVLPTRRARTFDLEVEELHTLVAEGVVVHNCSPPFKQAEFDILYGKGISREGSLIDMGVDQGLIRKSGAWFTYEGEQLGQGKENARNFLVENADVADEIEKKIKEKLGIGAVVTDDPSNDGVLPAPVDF
Description: Fluorescence Cell-Free Homogeneous Dose Retest to Identify Inhibitors of RecA-Intein Splicing Activity. [Related pubchem assays (depositor defined):AID2097, AID2223, AID489010, AID492950].

Assay [1] deals with T2, Replicative DNA helicase DnaB (Mycobacterium tuberculosis, UniProt P9WMR3).
T2 sequence (P9WMR3 whole entry): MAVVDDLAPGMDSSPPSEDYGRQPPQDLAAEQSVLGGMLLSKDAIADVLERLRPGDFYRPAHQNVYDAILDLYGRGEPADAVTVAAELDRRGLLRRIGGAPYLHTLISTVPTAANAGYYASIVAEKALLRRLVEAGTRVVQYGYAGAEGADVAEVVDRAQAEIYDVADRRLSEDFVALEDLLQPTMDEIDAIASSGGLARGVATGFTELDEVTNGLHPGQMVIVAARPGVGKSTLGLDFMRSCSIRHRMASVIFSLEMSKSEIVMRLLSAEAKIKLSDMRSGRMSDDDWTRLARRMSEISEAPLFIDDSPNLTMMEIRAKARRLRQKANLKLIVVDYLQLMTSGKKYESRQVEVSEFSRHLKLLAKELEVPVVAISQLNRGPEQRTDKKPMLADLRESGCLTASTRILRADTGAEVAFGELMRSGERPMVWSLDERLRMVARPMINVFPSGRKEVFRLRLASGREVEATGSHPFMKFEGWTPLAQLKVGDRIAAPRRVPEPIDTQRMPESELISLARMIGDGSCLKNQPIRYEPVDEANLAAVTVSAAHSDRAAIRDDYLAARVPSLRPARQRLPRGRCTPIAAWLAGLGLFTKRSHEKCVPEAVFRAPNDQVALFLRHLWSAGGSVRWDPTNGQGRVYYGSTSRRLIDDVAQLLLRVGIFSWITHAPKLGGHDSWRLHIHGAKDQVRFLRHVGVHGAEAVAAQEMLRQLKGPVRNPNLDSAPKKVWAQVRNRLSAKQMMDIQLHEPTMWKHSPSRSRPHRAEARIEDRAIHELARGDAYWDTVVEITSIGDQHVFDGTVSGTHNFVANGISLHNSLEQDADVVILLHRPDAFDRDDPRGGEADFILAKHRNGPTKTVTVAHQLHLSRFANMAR
Description: DnaB intein splicing inhibitors, dose response, biochemical, cell-free fluorescence (AID 449749).

The target in assay [2] is T3, Sentrin-specific protease 6 (Homo sapiens, UniProt Q9GZR1).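 Further: Luminescence-based dose-response confirmatory assay of SENP6 inhibition, following up an ultra-high-throughput screen.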
T3 sequence (Q9GZR1 whole entry): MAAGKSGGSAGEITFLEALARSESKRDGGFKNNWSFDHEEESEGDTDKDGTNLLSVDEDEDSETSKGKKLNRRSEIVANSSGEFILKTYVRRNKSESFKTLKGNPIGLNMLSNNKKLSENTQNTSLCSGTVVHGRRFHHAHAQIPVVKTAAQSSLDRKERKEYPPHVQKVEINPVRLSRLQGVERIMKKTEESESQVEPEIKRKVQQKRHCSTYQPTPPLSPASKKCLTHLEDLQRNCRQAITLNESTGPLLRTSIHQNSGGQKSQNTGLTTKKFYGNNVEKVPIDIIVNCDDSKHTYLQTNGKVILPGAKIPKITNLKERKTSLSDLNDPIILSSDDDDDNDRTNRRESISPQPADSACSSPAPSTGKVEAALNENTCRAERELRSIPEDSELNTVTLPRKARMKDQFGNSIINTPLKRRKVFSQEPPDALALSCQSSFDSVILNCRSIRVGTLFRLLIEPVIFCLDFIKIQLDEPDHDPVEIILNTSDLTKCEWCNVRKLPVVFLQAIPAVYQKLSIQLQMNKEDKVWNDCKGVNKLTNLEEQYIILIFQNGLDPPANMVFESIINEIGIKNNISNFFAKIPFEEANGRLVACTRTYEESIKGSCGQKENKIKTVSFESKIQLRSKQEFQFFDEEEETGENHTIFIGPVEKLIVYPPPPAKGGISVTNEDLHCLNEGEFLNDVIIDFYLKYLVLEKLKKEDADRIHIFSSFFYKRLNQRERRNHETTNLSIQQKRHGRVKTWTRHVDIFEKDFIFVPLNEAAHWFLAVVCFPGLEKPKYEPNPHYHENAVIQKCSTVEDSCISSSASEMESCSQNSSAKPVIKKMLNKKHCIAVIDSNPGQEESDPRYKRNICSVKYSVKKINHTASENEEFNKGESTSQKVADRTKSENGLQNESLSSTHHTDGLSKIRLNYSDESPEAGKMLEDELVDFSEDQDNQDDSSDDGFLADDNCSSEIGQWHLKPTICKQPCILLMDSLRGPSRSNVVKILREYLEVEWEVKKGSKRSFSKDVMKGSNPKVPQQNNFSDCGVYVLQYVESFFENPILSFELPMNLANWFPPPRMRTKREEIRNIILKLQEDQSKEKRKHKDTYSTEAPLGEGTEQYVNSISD

SMILES strings stand for the structures. Active and inactive are the calls of the source.

On to `Nc1ccc(N2CCCCC2)c2nonc12`, for which, at Protein RecA, the half-maximal effective concentration (EC50) – broadly, the concentration that produces a half-maximal response – is 2.76 µM (active). Besides, the AC50 (usually the concentration at which the activity in the assay is half-maximal) in assay [1] is 5.14 µM (active). For the same compound, in assay [2], the IC50 (as a rule, the concentration that inhibits the measured activity by half) is 9.43 µM (active).
With `COc1ccc(NC(=O)/C(Cl)=C(/Cl)[S+]([O-])Cc2ccccc2)cn1` (stereo not drawn), the EC50 on Protein RecA was 3.14 µM (active). Further, the concentration at half-maximal activity (AC50) in assay [1] was 3.35 µM (active).
Consider `Cc1ccc(S(=O)(=O)/N=C2\C=C(Nc3cccc(C(=O)O)c3)C(=O)c3ccccc32)c(C)c1`, for which the EC50 at Protein RecA was 15 µM (active). In addition, the AC50 in assay [1] is 27 µM (active). For the same compound, in assay [2], the concentration for half-maximal inhibition (IC50) is 0.819 µM (active).

For the origin of these results see ChEMBL document CHEMBL1201862, “PubChem BioAssay data set” (2004).
